What was measured:
Interstitial collagenase = target: T1, Interstitial collagenase (Homo sapiens, UniProt P03956); test: Inhibition of matrix metalloprotease-1 (MMP-1).
T1 sequence (P03956 whole entry): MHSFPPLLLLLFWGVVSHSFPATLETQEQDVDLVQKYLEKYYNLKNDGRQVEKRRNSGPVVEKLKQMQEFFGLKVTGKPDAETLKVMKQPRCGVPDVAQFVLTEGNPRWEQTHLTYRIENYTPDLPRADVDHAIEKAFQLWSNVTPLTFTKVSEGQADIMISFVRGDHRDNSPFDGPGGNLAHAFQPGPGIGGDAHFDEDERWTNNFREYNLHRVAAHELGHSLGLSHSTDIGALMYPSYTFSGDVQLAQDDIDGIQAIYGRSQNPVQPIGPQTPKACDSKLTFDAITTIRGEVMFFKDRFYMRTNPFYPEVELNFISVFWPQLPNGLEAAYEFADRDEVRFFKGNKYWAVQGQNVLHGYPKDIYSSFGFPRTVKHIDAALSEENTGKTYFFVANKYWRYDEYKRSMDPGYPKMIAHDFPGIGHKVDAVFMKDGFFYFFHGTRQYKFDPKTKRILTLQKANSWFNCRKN

Matrilysin = Matrilysin (Homo sapiens, UniProt P09237); test: Inhibition of matrix metalloprotease-7 (MMP-7).
Chain of Matrilysin (P09237 whole entry): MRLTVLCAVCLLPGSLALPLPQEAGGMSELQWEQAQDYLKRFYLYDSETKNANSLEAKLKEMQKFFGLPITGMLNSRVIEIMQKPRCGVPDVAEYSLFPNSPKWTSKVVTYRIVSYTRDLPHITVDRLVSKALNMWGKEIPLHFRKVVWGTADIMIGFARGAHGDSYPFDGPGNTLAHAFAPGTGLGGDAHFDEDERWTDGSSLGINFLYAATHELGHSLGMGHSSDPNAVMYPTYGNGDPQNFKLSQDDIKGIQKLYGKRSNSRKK

[1] = target: T2, Matrix metalloproteinase-9 (Homo sapiens, UniProt P14780); test: Inhibition of matrix metalloprotease-9 (MMP-9).
T2 sequence (P14780 whole entry): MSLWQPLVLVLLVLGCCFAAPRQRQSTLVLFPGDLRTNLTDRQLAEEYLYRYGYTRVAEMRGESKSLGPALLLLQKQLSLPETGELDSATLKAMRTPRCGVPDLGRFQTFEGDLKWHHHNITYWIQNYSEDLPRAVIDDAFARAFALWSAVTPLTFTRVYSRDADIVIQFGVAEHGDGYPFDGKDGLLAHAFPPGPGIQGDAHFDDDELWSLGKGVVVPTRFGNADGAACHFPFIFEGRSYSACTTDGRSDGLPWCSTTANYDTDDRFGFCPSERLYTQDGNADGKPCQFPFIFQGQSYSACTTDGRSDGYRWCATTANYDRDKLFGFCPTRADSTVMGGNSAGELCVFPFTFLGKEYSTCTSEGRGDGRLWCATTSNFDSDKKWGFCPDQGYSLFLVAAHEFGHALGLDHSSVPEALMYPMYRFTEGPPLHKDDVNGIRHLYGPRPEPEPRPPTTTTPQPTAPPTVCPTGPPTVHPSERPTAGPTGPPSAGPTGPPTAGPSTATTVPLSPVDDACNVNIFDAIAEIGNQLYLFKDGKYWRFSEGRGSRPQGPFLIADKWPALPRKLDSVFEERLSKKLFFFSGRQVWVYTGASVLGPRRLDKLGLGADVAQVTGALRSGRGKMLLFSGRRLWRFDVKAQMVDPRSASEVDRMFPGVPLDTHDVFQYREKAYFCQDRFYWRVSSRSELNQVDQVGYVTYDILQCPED

[2] = Half life.; type: ADME
Cricetinae gen. sp. [3] = test: Inhibition against at the dose of 30 mg/kg after 5 hr.; type: functional, Cricetulus griseus
[4] = target: Neutrophil elastase (Homo sapiens) (UniProt P08246); test: Inhibition of elastase.
Chain of Neutrophil elastase (Homo sapiens) (P08246 whole entry): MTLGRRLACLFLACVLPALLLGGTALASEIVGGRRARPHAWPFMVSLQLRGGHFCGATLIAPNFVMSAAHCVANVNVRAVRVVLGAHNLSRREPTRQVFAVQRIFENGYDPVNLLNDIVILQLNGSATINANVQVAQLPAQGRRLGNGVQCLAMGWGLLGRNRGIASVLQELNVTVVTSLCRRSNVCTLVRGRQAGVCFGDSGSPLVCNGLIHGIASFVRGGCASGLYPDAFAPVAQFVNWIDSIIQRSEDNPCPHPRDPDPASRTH

Cricetinae gen. sp. [5] = test: Inhibition against at the dose of 30 mg/kg after 30 minutes.; type: functional, Cricetulus griseus; settings: 0.5 h
Renin [6] = target: T3, Renin (Homo sapiens, UniProt P00797); test: Inhibitory concentration against renin..
T3 sequence (P00797 whole entry): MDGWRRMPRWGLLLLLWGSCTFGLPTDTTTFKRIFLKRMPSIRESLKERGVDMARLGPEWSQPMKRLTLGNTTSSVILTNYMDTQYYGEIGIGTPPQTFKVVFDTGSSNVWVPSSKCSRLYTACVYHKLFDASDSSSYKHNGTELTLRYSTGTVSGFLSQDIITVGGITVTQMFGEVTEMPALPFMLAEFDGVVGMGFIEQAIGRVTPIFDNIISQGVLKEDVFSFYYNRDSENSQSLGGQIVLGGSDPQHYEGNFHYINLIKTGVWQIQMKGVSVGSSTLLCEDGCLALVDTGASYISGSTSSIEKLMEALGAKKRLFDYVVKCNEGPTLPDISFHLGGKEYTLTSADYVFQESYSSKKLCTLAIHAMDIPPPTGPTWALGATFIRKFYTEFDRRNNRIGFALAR

Cathepsin D [7] = target: T4, Cathepsin D (Homo sapiens, UniProt P07339); test: Inhibitory concentration against cathepsin D
T4 sequence (P07339 65-162 limits assumed): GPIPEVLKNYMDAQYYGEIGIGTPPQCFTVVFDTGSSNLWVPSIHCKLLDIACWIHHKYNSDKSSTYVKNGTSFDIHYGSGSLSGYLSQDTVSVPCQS
T4 sequence (P07339 169-412 limits assumed): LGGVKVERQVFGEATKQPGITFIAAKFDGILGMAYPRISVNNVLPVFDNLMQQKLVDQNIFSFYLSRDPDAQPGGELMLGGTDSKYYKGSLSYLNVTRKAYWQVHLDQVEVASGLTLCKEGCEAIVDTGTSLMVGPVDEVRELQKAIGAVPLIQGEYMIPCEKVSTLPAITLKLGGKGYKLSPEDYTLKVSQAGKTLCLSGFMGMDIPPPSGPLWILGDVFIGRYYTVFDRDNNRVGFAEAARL

[8] = Inhibitory concentration against SAP
[9] = target: T5, Human rhinovirus A protease (Human rhinovirus sp., UniProt Q4U254); test: Effective concentration against human rhinovirus-14 3C.
T5 sequence (Q4U254 whole entry): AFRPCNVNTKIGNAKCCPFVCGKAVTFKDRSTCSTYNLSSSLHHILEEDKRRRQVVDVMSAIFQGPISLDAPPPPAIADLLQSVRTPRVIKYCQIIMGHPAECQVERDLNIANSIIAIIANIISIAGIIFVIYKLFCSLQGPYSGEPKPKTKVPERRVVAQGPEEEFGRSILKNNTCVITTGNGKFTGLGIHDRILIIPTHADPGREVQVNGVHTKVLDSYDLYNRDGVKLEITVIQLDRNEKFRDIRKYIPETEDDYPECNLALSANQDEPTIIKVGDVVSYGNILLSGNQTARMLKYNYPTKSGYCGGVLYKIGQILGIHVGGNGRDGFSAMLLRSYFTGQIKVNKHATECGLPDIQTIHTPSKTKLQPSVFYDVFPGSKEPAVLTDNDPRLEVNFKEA

[10] = target: T5, Human rhinovirus A protease; test: The binding affinity against HRV-143C protease.
[11] = target: T6, Human rhinovirus A protease (Human rhinovirus sp.) (UniProt Q4U254); test: Toxic concentration ragainst HRV-143C protease in cultured cells infected by HRV.; type: cell-based
T6 sequence (whole entry): T5 sequence (Q4U254 whole entry)

Plasmepsin I = Plasmepsin I (Plasmodium falciparum, UniProt P39898); test: Inhibitory concentration for Plasmodium falciparum plasmepsin-1.
Chain of Plasmepsin I (P39898 whole entry): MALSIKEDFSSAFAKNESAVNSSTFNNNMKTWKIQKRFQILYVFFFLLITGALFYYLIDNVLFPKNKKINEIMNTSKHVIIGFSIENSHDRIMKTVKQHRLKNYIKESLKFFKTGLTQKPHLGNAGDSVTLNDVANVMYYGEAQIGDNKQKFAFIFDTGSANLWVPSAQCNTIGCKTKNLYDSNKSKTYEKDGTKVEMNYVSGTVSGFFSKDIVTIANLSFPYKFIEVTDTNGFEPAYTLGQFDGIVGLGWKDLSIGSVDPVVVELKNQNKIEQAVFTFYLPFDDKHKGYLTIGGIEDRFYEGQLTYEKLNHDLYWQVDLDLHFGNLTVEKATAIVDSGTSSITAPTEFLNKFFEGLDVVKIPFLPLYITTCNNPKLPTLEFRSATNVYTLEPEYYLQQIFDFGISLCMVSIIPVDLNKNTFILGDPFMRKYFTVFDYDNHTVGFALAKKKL

[12] = Inhibitory concentration against the live parasite in preventing hemoglobin degradation.; type: functional
[13] = target: Plasmepsin II (Plasmodium falciparum) (UniProt P46925); test: Inhibition of Plasmodium falciparum plasmepsin-2 at 10 uM
Chain of Plasmepsin II (Plasmodium falciparum) (P46925 125-453 limits assumed): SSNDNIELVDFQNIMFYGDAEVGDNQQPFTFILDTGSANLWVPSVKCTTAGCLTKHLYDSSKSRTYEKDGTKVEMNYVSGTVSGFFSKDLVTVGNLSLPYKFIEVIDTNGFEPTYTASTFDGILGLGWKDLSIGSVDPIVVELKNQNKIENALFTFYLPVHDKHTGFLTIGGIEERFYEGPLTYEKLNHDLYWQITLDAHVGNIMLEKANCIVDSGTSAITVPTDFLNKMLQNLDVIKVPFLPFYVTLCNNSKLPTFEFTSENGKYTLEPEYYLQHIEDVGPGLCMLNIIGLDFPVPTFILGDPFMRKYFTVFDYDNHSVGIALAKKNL

Renin [14] = target: T3, Renin; test: Inhibitory concentration against renin.
[15] = Inhibitory concentration against several aspartic proteases of Candida albicans
Cathepsin D [16] = target: T4, Cathepsin D
Caspase-3 = Caspase-3 (Homo sapiens, UniProt P42574); test: Inhibitory activity against caspase-3.
Chain of Caspase-3 (P42574 29-175 limits assumed): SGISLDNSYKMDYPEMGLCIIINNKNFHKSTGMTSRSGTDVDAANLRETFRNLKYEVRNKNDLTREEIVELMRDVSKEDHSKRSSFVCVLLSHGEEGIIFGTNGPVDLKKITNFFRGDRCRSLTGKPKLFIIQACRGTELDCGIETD
Chain of Caspase-3 (P42574 176-277 limits assumed): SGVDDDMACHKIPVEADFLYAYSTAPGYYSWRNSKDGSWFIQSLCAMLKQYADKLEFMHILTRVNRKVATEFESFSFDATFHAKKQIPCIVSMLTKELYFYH

Caspase-1 = target: T7, Caspase-1 (Homo sapiens, UniProt P29466)
T7 sequence (P29466 whole entry): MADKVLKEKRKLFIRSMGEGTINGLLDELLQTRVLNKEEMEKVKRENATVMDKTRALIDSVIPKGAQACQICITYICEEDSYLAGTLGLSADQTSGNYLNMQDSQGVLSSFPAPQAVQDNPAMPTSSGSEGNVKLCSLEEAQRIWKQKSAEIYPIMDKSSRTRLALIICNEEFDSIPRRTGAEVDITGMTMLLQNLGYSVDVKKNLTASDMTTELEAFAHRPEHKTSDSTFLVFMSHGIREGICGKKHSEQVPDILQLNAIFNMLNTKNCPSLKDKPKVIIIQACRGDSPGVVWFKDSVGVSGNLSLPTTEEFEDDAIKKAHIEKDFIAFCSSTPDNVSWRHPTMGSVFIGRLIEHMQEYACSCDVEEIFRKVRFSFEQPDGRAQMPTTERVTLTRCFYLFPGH

Neutrophil collagenase = Neutrophil collagenase (Homo sapiens, UniProt P22894); test: Inhibition of matrix metalloprotease-8 (MMP-8).
Chain of Neutrophil collagenase (P22894 whole entry): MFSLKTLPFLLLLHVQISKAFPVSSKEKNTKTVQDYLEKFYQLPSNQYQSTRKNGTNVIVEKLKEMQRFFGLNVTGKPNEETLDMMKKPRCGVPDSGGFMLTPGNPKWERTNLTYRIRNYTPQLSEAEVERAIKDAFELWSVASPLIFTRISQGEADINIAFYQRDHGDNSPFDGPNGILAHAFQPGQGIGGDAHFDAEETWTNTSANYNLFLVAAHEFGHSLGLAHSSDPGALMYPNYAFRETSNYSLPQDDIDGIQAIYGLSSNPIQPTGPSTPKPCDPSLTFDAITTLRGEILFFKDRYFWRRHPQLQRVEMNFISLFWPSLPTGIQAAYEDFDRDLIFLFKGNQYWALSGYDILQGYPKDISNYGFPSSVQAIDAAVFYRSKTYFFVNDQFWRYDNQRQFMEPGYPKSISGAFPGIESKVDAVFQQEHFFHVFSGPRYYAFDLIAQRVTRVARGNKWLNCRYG

[17] = target: T2, Matrix metalloproteinase-9
[18] = target: 72 kDa type IV collagenase (Homo sapiens, UniProt P08253)
Chain of 72 kDa type IV collagenase (P08253 whole entry): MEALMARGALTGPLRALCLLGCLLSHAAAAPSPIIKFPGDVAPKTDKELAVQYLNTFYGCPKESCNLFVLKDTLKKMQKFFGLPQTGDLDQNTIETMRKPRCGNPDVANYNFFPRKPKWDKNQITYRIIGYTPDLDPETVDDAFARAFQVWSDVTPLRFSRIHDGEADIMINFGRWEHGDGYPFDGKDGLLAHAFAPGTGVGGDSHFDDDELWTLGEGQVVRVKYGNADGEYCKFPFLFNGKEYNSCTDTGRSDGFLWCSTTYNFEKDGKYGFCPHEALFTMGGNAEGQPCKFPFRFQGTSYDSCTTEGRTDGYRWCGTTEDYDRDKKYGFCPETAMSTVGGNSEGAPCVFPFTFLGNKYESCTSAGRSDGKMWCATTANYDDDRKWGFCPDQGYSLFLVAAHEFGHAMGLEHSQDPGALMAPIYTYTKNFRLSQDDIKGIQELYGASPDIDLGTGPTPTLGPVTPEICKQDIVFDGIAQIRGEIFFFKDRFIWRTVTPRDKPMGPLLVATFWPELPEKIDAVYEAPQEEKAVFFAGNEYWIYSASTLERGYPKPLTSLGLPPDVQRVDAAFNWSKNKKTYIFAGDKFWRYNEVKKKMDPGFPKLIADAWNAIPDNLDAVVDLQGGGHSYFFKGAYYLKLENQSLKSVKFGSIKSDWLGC

[19] = Plasma half life at the dose of 5 mg/kg iv.; type: ADME, organism-based; set-up: dose 5 mg/kg
[20] = Oral bioavailability in rats at the dose of 10 mg/kg po; type: ADME, organism-based; settings: rat, in vivo, read-out: Bioavailabiility
[21] = Cmax value in the period of 0-24 hr after dosing.; type: ADME, organism-based; settings: in vivo
[22] = Tmax value of the compound; type: ADME
Papain = Papain (Carica papaya, UniProt P00784); test: The apparent binding affinity against Papain; settings: read-out: Ki app
Chain of Papain (P00784 whole entry): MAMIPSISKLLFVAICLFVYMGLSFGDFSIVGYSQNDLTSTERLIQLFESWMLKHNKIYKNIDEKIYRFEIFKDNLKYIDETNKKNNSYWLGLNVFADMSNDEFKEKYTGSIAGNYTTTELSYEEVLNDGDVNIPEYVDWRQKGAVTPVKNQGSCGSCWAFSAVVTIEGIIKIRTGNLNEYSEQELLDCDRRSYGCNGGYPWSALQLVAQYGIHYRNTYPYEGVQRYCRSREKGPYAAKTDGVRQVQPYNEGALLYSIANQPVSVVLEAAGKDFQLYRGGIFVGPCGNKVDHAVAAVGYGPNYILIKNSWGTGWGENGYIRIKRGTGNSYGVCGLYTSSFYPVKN

Procathepsin L = Procathepsin L (Homo sapiens, UniProt P07711)
Chain of Procathepsin L (P07711 whole entry): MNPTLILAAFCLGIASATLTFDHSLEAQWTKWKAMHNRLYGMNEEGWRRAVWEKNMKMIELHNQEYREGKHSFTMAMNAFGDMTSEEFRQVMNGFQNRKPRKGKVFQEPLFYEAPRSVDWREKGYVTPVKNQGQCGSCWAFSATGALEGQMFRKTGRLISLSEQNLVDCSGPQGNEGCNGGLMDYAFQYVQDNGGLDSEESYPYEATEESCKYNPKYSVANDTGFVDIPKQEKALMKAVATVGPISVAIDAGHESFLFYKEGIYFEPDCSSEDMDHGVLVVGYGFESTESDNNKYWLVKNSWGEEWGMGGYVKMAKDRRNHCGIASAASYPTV

Cathepsin B = Cathepsin B (Homo sapiens, UniProt P07858)

Work on `COc1ccc(S(=O)(=O)N2CC(C)(C)CN(S(=O)(=O)c3ccc(OC)cc3)C2C(=O)NO)cc1` yielded a Ki (Interstitial collagenase) of 24 nM, a Ki (Matrilysin) of 30 nM and a Ki [1] of 30 nM.
With `CC[C@@H](NC(=O)N1C(=O)[C@](C)(CC)[C@@H]1Oc1ccc(CC(=O)O)cc1)c1ccccc1` the half-life [2] was 5 h, the inhibition in vivo at 30 mg/kg (Cricetinae gen. sp. [3]) was 51% and the K obs / 1 [4] was 91000 M⁻¹ s⁻¹. The inhibition in vivo at 30 mg/kg (Cricetinae gen. sp. [5]) was 98%.
With `CCCC[C@@H](C(=O)N[C@@H](CC1CCCCC1)[C@@H](O)C[C@H](C(=O)NCCN(C)C)C(C)C)N1CCN(C(=O)N2CCN(C)CC2)[C@H](Cc2ccccc2)C1=O` the IC50 (Renin [6]) was over 100 nM, the IC50 (Cathepsin D [7]) was 58000 nM and the IC50 [8] was 6.2 nM.
`NC(=O)c1ccc2c(c1)C(=O)C(=O)N2Cc1ccc2ccsc2c1` showed an EC50 [9] of over 5600 nM, a Ki [10] of 2 nM and a TC50 [11] of 5600 nM.
Work on `CCCCC(O)[C@H](C)C[C@H](O)[C@H](CC1CCCCC1)NC(=O)[C@H](CC(C)C)NC(=O)[C@H](Cc1ccccc1)NC(=O)OC(C)(C)C` (some centres not stated) yielded an IC50 (Plasmepsin I) of 500 nM, an IC50 [12] of 5000 nM and an inhibition [13] of 22%.
With `CCCC[C@@H](C(=O)N[C@@H](CC1CCCCC1)[C@@H](O)C[C@H](C(=O)NCCC)C(C)C)N1CCN(C(=O)N2CCN(C)CC2)[C@H](Cc2ccccc2)C1=O` the IC50 (Cathepsin D [7]) was 770 nM, the IC50 (Renin [14]) was 7.1 nM and the IC50 [15] was 1.4 nM.
Compound `COc1cc(Br)c(OCC(=O)NC(Cc2cccc(Oc3ccccc3)c2)[C@@H](O)CN(CCc2ccc(Cl)cc2Cl)C(=O)CCN2C(=O)c3ccccc3C2=O)cc1OC` (some centres not stated) has a Ki (Cathepsin D [16]) of 0.7 nM.
Compound `O=C1C[C@H](NC(=O)[C@@H]2CCC[C@@H]3CCC[C@H](NC(=O)OCc4ccccc4)C(=O)N32)C(O)O1` (some centres not stated) has an IC50 (Caspase-3) of over 10000 nM and an IC50 (Caspase-1) of 36 nM.
With `CN1C(=O)N(C[C@H](C(=O)NO)[C@@H](CC2CCCC2)C(=O)N2CCCCC2)C(=O)C1(C)C` the Ki (Neutrophil collagenase) was 4 nM, the Ki [17] was 59 nM and the Ki [18] was 154 nM.
With `CC(C)c1nc(CN(C)C(=O)N[C@H](C(=O)N[C@@H](Cc2ccccc2)C[C@H](O)[C@H](Cc2ccccc2)NC(=O)OCc2cncs2)C(C)C)cs1` [RITONAVIR] the half-life [19] was 1.2 h, the bioavailability [20] was 78% and the Cmax [21] was 2600 nM. It also gave a Tmax [22] of 2 h.
`CC(C)C[C@H](NC(=O)OCc1ccccc1)C(=O)NCC(=O)CNC(=O)[C@H](CC(C)C)NC(=O)OCc1ccccc1` gave a Ki (Papain) of over 10000 nM, a Ki (Procathepsin L) of 340 nM and a Ki (Cathepsin B) of 1300 nM.

From ChEMBL document CHEMBL1133572, “Protease inhibitors: current status and future prospects” (J Med Chem, 2000)
